The record followed here is US20030229132A1, “Small molecule modulators of apoptosis” (priority 2002, published 2003).

In the assay the target is T1, Apaf-1 (Homo sapiens, UniProt O14727).
T1 construct: resulting in full-length Apaf-XL with a C-terminal six histidine tag; six histidine tag (His6) (C); made in house; host or cells: insect cells (Hi-5), baculovirus vector pFastbacHT / pFastbacH
T1 sequence (O14727 1-1248): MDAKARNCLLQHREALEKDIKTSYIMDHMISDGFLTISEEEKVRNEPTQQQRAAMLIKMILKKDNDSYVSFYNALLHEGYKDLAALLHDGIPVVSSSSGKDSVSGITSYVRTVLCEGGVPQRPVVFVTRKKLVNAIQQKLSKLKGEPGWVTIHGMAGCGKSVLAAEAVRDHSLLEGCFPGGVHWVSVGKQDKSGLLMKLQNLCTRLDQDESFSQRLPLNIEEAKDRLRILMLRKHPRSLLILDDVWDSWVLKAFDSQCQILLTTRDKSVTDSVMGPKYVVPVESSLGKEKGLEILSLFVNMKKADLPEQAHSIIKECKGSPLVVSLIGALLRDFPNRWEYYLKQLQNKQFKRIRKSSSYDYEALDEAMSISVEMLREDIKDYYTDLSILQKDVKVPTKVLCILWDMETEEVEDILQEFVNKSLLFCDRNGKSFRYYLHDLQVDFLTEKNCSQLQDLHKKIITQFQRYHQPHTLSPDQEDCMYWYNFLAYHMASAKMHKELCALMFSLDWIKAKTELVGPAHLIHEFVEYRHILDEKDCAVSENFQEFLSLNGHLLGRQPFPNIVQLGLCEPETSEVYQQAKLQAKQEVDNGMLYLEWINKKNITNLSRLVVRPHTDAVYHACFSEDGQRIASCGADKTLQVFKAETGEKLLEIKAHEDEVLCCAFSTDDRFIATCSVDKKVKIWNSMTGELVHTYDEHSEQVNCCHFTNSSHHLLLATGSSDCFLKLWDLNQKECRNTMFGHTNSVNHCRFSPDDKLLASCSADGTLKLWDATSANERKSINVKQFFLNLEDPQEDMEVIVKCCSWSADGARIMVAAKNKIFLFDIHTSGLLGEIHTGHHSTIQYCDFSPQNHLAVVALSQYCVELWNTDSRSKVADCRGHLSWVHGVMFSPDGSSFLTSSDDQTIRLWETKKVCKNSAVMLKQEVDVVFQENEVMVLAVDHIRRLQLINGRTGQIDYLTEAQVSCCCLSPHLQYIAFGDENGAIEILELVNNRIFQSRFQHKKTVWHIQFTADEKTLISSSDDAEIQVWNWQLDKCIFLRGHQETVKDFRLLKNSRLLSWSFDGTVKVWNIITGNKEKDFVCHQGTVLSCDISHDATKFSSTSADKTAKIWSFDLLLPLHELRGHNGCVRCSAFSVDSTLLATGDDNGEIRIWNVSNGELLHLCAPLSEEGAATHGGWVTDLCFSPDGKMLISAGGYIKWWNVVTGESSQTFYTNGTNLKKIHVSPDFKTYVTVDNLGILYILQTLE
As to the kind of experiment: Apaf-1 oligomerization by gel filtration. Format: biochemical. The settings on record: for increase of oligomerization of Apaf-1 over the vehicle alone: 20 μM compound, 0.15 μM cyto c; for Apaf-1 complex assembly in the absence of cyto c: no cyto c. The procedure:
FIG. 7 depicts activity of compounds 1-5 at low cyto c concentrations in a purified system. Apaf-1 was incubated with vehicle, cyto c, or cyto c plus 20 μM compound as indicated, and then separated on a Superose 6 gel filtration column. Individual fractions were assayed for relative Apaf-1 concentrations by capture ELISA (bar graph), or the ability to activate procaspase-3 processing in lysates (line graph). The percent of Apaf-1 in apoptosomes was determined by dividing the amount of Apaf-1 in fractions 8-11 by the total amount of Apaf-1. The extent of caspase-3 activation (given in arbitrary units) corresponds to the area under the curve for fractions 8-11 in each panel. Black bars represent fractions used for calculations.
As the compounds appeared to be acting prior to caspase activation, their effect on the oligomerization of Apaf-1 was assessed (K. Cain, D. G. Brown, C. Langlais, G. M. Cohen, J Biol Chem 274, 22686-92 (1999); K. Cain et al., J Biol Chem 275, 6067-70 (2000)). By gel filtration, Apaf-1 normally runs as a monomer of ˜140 kD (FIG. 7) (see, A. Saleh, S. M. Srinivasula, S. Acharya, R. Fishel, E. S. Alnemri, J Biol Chem 274, 17941-5 (1999)). Incubation of Apaf-1 with 5 μM cyto c induces over 90% of the Apaf-1 to form large complexes of ˜700 kD, whereas incubation with 0.15 μM cyto c concentration allowed only 22% of the Apaf-1 to assemble into complexes. However, the addition of 20 μM compound 2 or 5 at the lower cyto c concentration caused the formation of two higher molecular weight complexes: a major peak that runs at the same retention time as the complex seen at 5 μM cyto c (˜700 kD), and a minor peak that elutes in the void volume. […] To determine if the Apaf-1 complexes induced by the compounds at the lower cyto c concentration are competent for caspase activation, procaspase-9, procaspase-3, and dATP were added to fractions from the gel filtration column and assayed for caspase-3 activation. Fractions from samples that had been incubated with 5 μM cyto c strongly activated caspase-3 processing (FIG. 7, panel ii, line graph), with the maximal caspase activation corresponding to the fractions that contained the apoptosome complex. On the other hand, no fractions form the sample without cyto c activated capsase-3 processing (panel i). There was a small but measurable amount of capsase-3 activation when the cyto c concentration was reduced to 0.15 μM (panel iii). However, the extent of caspase-3 activation at the reduced level of cyto c increased approximately 4-fold when either compound 2 or 5 was added to the reaction (from 0.36 arbitrary units for the vehicle alone to 1.57 and 1.4 for compounds 2 and 5, respectively, panels iv and vi). […] Again, there was no increase in capsapse-3 activation when compounds were incubated with Apaf-1 in the absence of cyto c.
Bovine heart cyto c is purchased from Sigma and used without further purification. The XL form of Apaf-1 is cloned into pFastbacH and expressed in insect cells, resulting in full-length Apaf-XL with a C-terminal six histidine tag. Purification of Apaf-1 is according to A. Saleh, et al., J Biol Chem 274, 17941-45 (1999). 100 μL of 2 μM Apaf-1 is combined with 300 μM dATP in a mixture, with or without the further addition of 0.15 μM cyto c or compounds and heated for 30 min at 37° C.
The mixtures are next injected into a Superose 6 gel filtration column and separated at 0.4 mL/min in PBS; 0.8 mL fractions are collected 10 min after injection. […]
For orientation: In gel filtration, larger molecules generally elute earlier.

Each structure is given as a SMILES string.

With `O=C1C(=O)N(Cc2ccc(Cl)c(Cl)c2)c2ccccc21` [Compound 2], the “increase of oligomerization of Apaf-1 over the vehicle alone” value (from here on “increase”) is given as “about 1.5 fold” and the “Apaf-1 complex assembly in the absence of cyto c” value is listed as “no complex assembly”.

As for `O=C(NCc1ccc(Cl)c(Cl)c1)OC1CCc2ccccc21` (centres unmarked) [Compound 4], the “increase” value is “no effect”.

As to `O=C(NCc1ccc(Cl)c(Cl)c1)OC1CCc2ccccc21` (centres unmarked) [Compound 5], the “increase” value is listed as “about 1.5 fold” and the “Apaf-1 complex assembly in the absence of cyto c” value was “no complex assembly”.
